Our source for the IC50 values is paper PMC11942890, “Identification of a Novel NPC1L1 Inhibitor from Danshen and Its Role in Nonalcoholic Fatty Liver Disease” (International Journal of Molecular Sciences, 2025).

Assay [1] has as its target T1, Niemann-Pick C1-like 1 (NPC1L1) (Homo sapiens, UniProt Q9UHC9).
T1 construct: hNPC1L1 CDS (NM_001101648.2) with 3 × Flag tag at the 3′ end, stably expressed in Caco2 cells (hL1-Caco2)
Nature of the assay: reference inhibitor; NPC1L1 inhibition in hL1-Caco2 cells (NBD-cholesterol uptake). The format is cell-based.

Assay [2] concerns the target T1, Niemann-Pick C1-like 1 (NPC1L1). The assay can be described thus: NBD-cholesterol uptake inhibition in hL1-Caco2 cells stably expressing human NPC1L1. The format is cell-based.

T1 sequence (Q9UHC9 other isoform, or with tags, fused parts or gaps): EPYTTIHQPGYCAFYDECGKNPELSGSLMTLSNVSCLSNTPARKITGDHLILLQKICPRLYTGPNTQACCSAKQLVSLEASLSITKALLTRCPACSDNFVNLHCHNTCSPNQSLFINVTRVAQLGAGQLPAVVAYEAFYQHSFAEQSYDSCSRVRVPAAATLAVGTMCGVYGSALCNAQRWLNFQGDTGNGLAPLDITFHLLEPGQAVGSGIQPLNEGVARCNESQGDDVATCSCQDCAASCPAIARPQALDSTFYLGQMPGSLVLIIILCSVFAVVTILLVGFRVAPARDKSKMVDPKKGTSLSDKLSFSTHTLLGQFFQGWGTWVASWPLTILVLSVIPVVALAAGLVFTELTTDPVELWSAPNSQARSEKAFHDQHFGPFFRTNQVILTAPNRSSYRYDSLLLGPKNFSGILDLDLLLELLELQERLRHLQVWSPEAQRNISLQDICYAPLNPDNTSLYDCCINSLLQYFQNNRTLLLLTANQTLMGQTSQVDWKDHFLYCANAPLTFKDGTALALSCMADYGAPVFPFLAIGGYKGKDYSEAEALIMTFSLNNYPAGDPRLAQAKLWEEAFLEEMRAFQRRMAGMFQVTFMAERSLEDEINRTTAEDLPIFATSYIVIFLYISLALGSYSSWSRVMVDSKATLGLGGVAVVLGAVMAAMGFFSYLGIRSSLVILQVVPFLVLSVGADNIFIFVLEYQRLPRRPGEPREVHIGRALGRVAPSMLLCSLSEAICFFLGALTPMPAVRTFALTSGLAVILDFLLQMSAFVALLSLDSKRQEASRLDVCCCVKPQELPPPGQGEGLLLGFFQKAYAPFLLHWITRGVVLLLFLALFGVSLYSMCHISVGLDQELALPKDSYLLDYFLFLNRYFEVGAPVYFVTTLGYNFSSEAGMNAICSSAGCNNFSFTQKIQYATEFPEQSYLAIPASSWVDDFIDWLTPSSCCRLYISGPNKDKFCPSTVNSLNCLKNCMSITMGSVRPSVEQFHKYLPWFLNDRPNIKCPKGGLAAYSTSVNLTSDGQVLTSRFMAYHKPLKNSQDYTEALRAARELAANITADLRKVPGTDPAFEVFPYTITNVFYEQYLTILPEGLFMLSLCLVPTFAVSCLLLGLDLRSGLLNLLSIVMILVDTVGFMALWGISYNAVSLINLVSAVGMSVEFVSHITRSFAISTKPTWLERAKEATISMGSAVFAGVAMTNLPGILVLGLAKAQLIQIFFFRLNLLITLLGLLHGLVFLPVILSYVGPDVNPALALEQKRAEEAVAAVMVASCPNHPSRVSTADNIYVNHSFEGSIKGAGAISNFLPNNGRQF

In the case of `O=C1[C@H](CC[C@H](O)c2ccc(F)cc2)[C@@H](c2ccc(O)cc2)N1c1ccc(F)cc1` [ezetimibe], it took 0.35 µM to reach half-maximal inhibition in assay [1] (IC50).
For `C[C@H]1COC2=C1C(=O)C(=O)c1c2ccc2c1CCCC2(C)C` [F1-1, cryptotanshinone], in assay [2], the IC50 was found to be 12.3 µM.

In general, IC50 refers to the concentration that gives 50% inhibition. A low value points to inhibition by little substance.
